Assay results taken from article PMC6792352, “Limited Chemical Structural Diversity Found to Modulate Thyroid Hormone Receptor in the Tox21 Chemical Library” (Environmental Health Perspectives, 2019).
Where a name gives a salt, the structure may show the parent alone.

Experiment: in vitro
Conditions: rat, gh3-tre-luc cells, AC50 (uM) modified / 1000

SMILES	CC50 at 24 h [µM]
COC(=O)[C@H]1[C@H]2C[C@@H]3c4[nH]c5cc(OC)ccc5c4CCN3C[C@H]2C[C@@H](OC(=O)COc2ccc(OC)cc2)[C@@H]1OC [Mefeserpine]	> 50
COc1cc(Cc2cnc(N)nc2N)cc(OC)c1OC [Trimethoprim]	> 90
Cc1ccc(NC(N)=O)cc1 [p-Tolylurea]	> 90
O=C1N(c2ccccc2)c2ccccc2C1(Cc1ccncc1)Cc1ccncc1 [Linopirdine]	> 50
C=C[Si](C)(C=C)O[Si](C)(C)C [Divinyltetramethyldisiloxane]	> 90
NS(=O)(=O)c1cc2c(cc1Cl)N=CNS2(=O)=O [Chlorothiazide]	> 90
CCN(CC)CCO [N,N-Diethylethanolamine]	> 100
C[C@H](Cc1ccc(O)c(O)c1)[C@@H](C)Cc1ccc(O)c(O)c1 [Nordihydroguaiaretic acid]	8.42
CCC(C)c1ccc(O)cc1 (stereo not drawn) [4-(Butan-2-yl)phenol]	61.9
CC(C)(O)CCCC1=CCC(C=O)CC1 (stereo not drawn) [4-(4-Hydroxy-4-methylpentyl)cyclohex-3-ene-1-carbaldehyde]	> 100
Clc1ccc(C2(Cn3cncn3)OCCO2)c(Cl)c1 [Azaconazole]	> 90
c1ccc2ncccc2c1 [Quinoline]	> 90
COc1ccc(N=[N+]([O-])c2ccc(OC)cc2)cc1 [4-Azoxyanisole]	> 90
Cc1cccc(C)c1NC(=O)CN(CC(=O)O)CC(=O)O [Lidofenin]	> 50
CO/N=C1\CN(c2nc3c(cc2F)c(=O)c(C(=O)O)cn3C2CC2)CC1CN (stereo not drawn) [Gemifloxacin mesylate]	> 50
CCCCc1ncc(/C=C(\Cc2cccs2)C(=O)O)n1Cc1ccc(C(=O)O)cc1 [Eprosartan mesylate]	> 50
CC(=O)CC(=O)Nc1ccccc1 [Acetoacetanilide]	> 90
CCc1nccnc1CC [2,3-Diethylpyrazine]	> 30
CC(C)(S)C(=O)N[C@@H](CS)C(=O)O [Bucillamine]	> 50
C=C[Si](OC(C)=O)(OC(C)=O)OC(C)=O [Ethenylsilanetriyl triacetate]	> 90
CC(C(=O)O)c1ccc(CC2CCCC2=O)cc1 (stereo not drawn) [Loxoprofen]	> 50

SMILES	CC50 at 24 h [µM]
CC[C@@H](C(=O)[C@@H](C)[C@@H](O)[C@H](C)[C@@H]1O[C@@H]([C@@H](CC)C(=O)O)CC[C@@H]1C)[C@H]1O[C@]2(C=C[C@@H](O)[C@]3(CC[C@@](C)([C@H]4CC[C@](O)(CC)[C@H](C)O4)O3)O2)[C@H](C)C[C@@H]1C [Salinomycin sodium]	0.823
CCN(CC)CCOc1ccccc1OC [Guaiactamine]	> 50
OCC(F)(F)F [2,2,2-Trifluoroethanol]	> 100
C[C@]12CC[C@H]3[C@@H](CCC4=CC(=O)CC[C@@H]43)[C@@H]1CC[C@@H]2O [Nandrolone]	> 90
O=NN(CCCl)C(=O)NCCCl [Carmustine]	> 50
CCCCC1C(=O)N(c2ccccc2)N(c2ccc(O)cc2)C1=O (stereo not drawn) [Oxyphenbutazone]	3.72
CC(=O)OC(c1ccccc1)C(Cl)(Cl)Cl (stereo not drawn) [2,2,2-Trichloro-1-phenylethyl acetate]	> 90
O=C1CCCCCCCCCCC(=O)OCCO1 [1,4-Dioxacyclohexadecane-5,16-dione]	> 90
CCCCCCC1CCOC1=O (stereo not drawn) [alpha-Hexyl-gamma-butyrolactone]	> 90
CCN(O)CC [N,N-Diethylhydroxylamine]	> 90
CC(C)SCc1ccco1 [Furfuryl isopropyl sulfide]	> 40
CCCC(=O)c1cc(O)c(O)cc1O [2',4',5'-Trihydroxybutyrophenone]	> 90
O=C1NS(=O)(=O)c2ccccc21 [Sodium saccharin]	> 90
C[C@@H]1CCC[C@H](C)N1NC(=O)c1ccc(Cl)c(S(N)(=O)=O)c1 [Clopamide]	> 20
c1ccc2c(c1)Cc1ccccc1-2 [Fluorene]	> 90
CCCN(CCC)CCc1cccc2c1CC(=O)N2 [Ropinirole]	> 50
CC(C)(C)OCC1CO1 (stereo not drawn) [tert-Butyl glycidyl ether]	> 90
C[N+](C)(C)CC(O)CCl (stereo not drawn) [Dextrosil]	> 90
FC(F)(F)C(Cl)(Cl)Cl [1,1,1-Trichloro-2,2,2-trifluoroethane]	> 90
CCN(Cc1cccc(S(=O)(=O)O)c1)c1ccc(C(=C2C=CC(=[N+](CC)Cc3cccc(S(=O)(=O)O)c3)C=C2)c2ccccc2S(=O)(=O)[O-])cc1 [FD&C Blue No. 1]	50.7
CC1(C)[C@H](C(=O)O[C@H](C#N)c2cccc(Oc3ccccc3)c2)[C@@H]1C=C(Cl)Cl [alpha-Cypermethrin]	> 90

SMILES	CC50 at 24 h [µM]
CC(C)(C)N [tert-Butylamine]	> 90
CCCc1ncc(C[n+]2ccccc2C)c(N)n1 [Amprolium hydrochloride]	> 20
Cc1ccc(S(=O)(=O)NCl)cc1 [Chloramine T hydrate (1:x)]	> 80
O=C(O)c1cccnc1 [Nicotinic acid]	> 50
C=C(C)[C@@H]1CCC2=CC(=O)C[C@@H](C)[C@]2(C)C1 [Nootkatone]	> 90
O=C(Oc1ccccc1)c1ccccc1C(=O)Oc1ccccc1 [Diphenyl phthalate]	53.7
CCCCC(CC)COC(=O)c1ccccc1O (stereo not drawn) [2-Ethylhexyl salicylate]	> 50
Nc1ccc2ccccc2c1S(=O)(=O)O [2-Amino-1-naphthalenesulfonic acid]	> 90
COc1cccc(CCc2ccccc2OCC(CN(C)C)OC(=O)CCC(=O)O)c1 (stereo not drawn) [Sarpogrelate hydrochloride]	17.2
CC(C)C(=O)OC(=O)C(C)C [Isobutyric anhydride]	> 90
CC1(C)CON(Cc2ccccc2Cl)C1=O [Clomazone]	> 90
C[C@]12C=CC(=O)C=C1[C@@H](F)C[C@@H]1[C@@H]2[C@@H](O)C[C@@]2(C)[C@H]1CC[C@]2(O)C(=O)CO [Fluprednisolone]	> 50
COCCOCCOCCOC [Triethylene glycol dimethyl ether]	> 90
CC(C)CCCCCCN [Isononanamine]	> 90
CCOCC(=O)O [Ethoxyacetic acid]	> 90
CCOC(=O)c1ccccc1OC [Ethyl 2-methoxybenzoate]	> 90
COc1ccc(/C=C/c2cc(OC)cc(=O)o2)cc1 [Yangonin]	> 40
c1ccc2sc(SN3CCOCC3)nc2c1 [N-Oxydiethylenebenzothiazole-2-sulfenamide]	> 50
C=C(C)[C@@H]1CC[C@@H](C)C[C@H]1O [Isopulegol]	> 90
CCCc1c2oc(C(=O)O)cc(=O)c2cc2c(=O)cc(C(=O)O)n(CC)c12 [Nedocromil]	> 50
N=C(N)S(=O)O [Amino(imino)methanesulfinic acid]	> 90

Same assay, conditions: rat, gh3-tre-luc cells, AC50 (uM) modified / 1000, Tox21_110001=Tox21_112447; viability, 1 nM T3 present, 24 h

SMILES	CC50 at 24 h [µM]
Cc1ccccc1-n1c(CF)nc2ccc(N)cc2c1=O [Afloqualone]	> 50

Same assay, conditions: rat, gh3-tre-luc cells, AC50 (uM) modified / 1000, Tox21_110001=Tox21_200152; viability, 1 nM T3 present, 24 h

SMILES	CC50 at 24 h [µM]
CCOC(=O)CBr [Ethyl bromoacetate]	> 90

Same assay, conditions: rat, gh3-tre-luc cells, AC50 (uM) modified / 1000, Tox21_110001=Tox21_200998; viability, 1 nM T3 present, 24 h

SMILES	CC50 at 24 h [µM]
CC(O)CCl (stereo not drawn) [1-Chloro-2-propanol, technical grade (~75% 1-chloro-2-propanol; ~25% 2-chloro-1-propanol)]	> 90
